Assay results taken from US10221139B2, “Inhibitors of histone demethylases” (Gilead Sciences, Inc., priority 2012, dated 2019).

Tests used:
MCF7 cells = assay: MCF7 cell proliferation assay (ATPlite); format: cell-based; conditions: Homo sapiens, 120 hours
Method: MCF7 cells were seeded at 1250 cells/well in 50 μl medium/well in black 96 well plates. Cells were incubated for 24 hours before addition of compound. Compounds were diluted in complete medium (50 μl/well) and added to the plates in duplicates. The total volume of medium in the wells was 100 μl, and the final concentration of DMSO 0.5%. Complete medium used was DMEM with GlutaMAX containing 10% FBS and pen/strep.
120 hours after addition of compounds, the plates were harvested and analyzed by ATPlite 1 Step (Perkin Elmer, cat no 6016739) according to the manufactures recommendation. Briefly, 100 μl ATP lite solution was added to each well, plates were vortexed at 700 rpm 2 minutes, followed by 20 minutes incubation in the dark, and then analyzed for luminescence on EnSpire 2300 Mulitilabel reader (Perkin Elmer). EC50 values were calculated using GraphPad Prism 6.

GASC1 (KDM4C, JMJD2C) = target: T1, GASC1 (KDM4C, JMJD2C) (Homo sapiens, UniProt Q9H3R0); assay: Histone lysine demethylase AlphaLISA assay, GASC1; format: biochemical; conditions: substrate BK9M3
T1 construct: 1-349; host or cells: E. coli
T1 sequence (Q9H3R0 1-349): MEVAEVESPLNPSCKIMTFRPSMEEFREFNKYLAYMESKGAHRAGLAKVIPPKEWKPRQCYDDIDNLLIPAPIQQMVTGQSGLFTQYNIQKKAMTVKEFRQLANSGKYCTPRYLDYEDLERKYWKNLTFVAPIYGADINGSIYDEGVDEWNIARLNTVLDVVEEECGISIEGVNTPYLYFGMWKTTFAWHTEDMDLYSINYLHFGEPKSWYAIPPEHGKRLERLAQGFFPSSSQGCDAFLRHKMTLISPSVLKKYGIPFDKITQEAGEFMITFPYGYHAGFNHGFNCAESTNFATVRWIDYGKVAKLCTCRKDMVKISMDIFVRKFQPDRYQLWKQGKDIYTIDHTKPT
Method: (§1) Example 2: Histone Lysine Demethylase AlphaLISA Assays for IC50 Value Determination
(§2) Assays are performed analogously to the protocol described by Perkin Elmer (Roy et al. Perkin Elmer Technical Note: AlphaLISA #12, April 2011).
(§3) Enzymes are dissolved in enzyme buffer and incubated for 10 min before 5 μL is added to 5 μL 3% DMSO solutions of compounds in enzyme buffer. Incubated for another 10 minutes, before 5 μL substrate solution is added and the reaction mixture is incubated at room temperature for the given period. 10 μL acceptor beads, suspended at given dilutions in Epigenetic Buffer (Perkin Elmer AL008) from stock, are added and the suspension is incubated 60 minutes in the dark at room temperature, before 10 μL suspension (at the given dilutions in Epigenetic Buffer) of streptavidin donor beads (Perkin Elmer 6760002) in Epigenetic Buffer is added. After incubation at room temperature in the dark the plates are read. Reaction conditions are seen in Table 2b.

UTX (KDM6A) = target: T2, UTX (KDM6A) (Homo sapiens, UniProt O15550); assay: Histone lysine demethylase AlphaLISA assay, UTX; format: biochemical; conditions: substrate BK27M3
T2 construct: 919-1401; host or cells: E. coli
T2 sequence (O15550 919-1401): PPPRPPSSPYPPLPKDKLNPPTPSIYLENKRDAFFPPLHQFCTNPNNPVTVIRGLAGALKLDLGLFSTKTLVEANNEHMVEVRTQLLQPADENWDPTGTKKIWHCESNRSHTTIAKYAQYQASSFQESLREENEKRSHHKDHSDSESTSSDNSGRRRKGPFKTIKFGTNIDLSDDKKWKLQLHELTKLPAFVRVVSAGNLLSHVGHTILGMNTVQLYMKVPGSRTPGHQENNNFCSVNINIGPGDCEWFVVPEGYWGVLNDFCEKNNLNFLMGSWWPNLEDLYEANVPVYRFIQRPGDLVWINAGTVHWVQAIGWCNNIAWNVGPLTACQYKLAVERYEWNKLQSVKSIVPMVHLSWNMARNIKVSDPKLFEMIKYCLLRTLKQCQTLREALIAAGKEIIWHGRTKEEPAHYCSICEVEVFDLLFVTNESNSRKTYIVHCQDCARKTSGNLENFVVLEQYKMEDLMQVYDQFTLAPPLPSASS
Method: as §1, §2, §3

PLU1 (KDM5B) = target: T3, PLU1 (KDM5B) (Homo sapiens, UniProt Q9UGL1); assay: Histone lysine demethylase AlphaLISA assay, PLU1; format: biochemical; conditions: substrate H3K4M3B
T3 construct: 1-809; host or cells: E. coli
T3 sequence (Q9UGL1 1-809): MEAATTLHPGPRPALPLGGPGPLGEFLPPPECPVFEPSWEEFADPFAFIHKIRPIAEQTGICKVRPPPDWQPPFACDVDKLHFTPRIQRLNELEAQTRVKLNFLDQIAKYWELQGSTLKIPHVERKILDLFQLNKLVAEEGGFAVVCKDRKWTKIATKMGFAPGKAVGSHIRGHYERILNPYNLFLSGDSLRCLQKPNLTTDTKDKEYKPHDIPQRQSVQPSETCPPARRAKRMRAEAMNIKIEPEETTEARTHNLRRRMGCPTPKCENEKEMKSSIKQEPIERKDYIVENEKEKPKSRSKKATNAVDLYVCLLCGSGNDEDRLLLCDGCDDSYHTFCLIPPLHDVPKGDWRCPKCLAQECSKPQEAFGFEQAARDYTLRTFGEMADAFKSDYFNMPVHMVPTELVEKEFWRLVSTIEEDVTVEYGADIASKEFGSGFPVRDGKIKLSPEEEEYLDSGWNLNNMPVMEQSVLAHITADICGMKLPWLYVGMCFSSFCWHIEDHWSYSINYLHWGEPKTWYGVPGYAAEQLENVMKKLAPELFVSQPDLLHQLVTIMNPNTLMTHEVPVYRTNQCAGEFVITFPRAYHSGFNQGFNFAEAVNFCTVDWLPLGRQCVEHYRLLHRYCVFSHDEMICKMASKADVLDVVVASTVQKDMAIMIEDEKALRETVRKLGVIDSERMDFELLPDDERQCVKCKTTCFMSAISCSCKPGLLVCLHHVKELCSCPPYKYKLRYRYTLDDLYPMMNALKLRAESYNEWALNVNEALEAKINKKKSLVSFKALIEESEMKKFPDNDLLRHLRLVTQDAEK
Method: as §1, §2, §3

EC50 (MCF7 cells) | IC50 (GASC1 (KDM4C, JMJD2C)) | IC50 (UTX (KDM6A)) | IC50 (PLU1 (KDM5B)) | Compound
1000 to 50000 nM | – | – | – | CCN(CCN(C)C)C(=O)CNCc1cc(C(=O)OCC(F)(F)F)ccn1 [drawing 292, 2,2,2-trifluoroethyl 2-{[({[2-(dimethylamino)ethyl](ethyl)carbamoyl}methyl)amino]methyl}pyridine-4-carboxylate]
1000 to 50000 nM | – | – | – | CN(CCCc1nccn1C)C(=O)CNCc1cc(C(=O)O)ccn1 [drawing 261, 2-{[({methyl[3-(1-methyl-1H-imidazol-2-yl)propyl]carbamoyl}methyl)amino]methyl} pyridine-4-carboxylic acid]
< 1000 nM | – | – | – | CCN(CCN(C)C)C(=O)CNCc1cc(C(=O)OC)ccn1 [drawing 287, methyl 2-{[({[2-(dimethylamino)ethyl](ethyl)carbamoyl}methyl)amino]methyl}pyridine-4-carboxylate]
< 1000 nM | – | – | – | C=CC(CCN(C)C(=O)C(F)(F)F)OC(=O)c1ccnc(CNCC(=O)N(CC)CCN(C)C)c1 (stereo not shown) [drawing 284, 5-(2,2,2-trifluoro-N-methylacetamido)pent-1-en-3-yl 2-{[({[2-(dimethylamino)ethyl](ethyl)carbamoyl}methyl)amino]methyl}pyridine-4-carboxylate]
– | < 100 nM | ≥ 1000 nM | < 100 nM | O=C(O)c1ccnc(CNCC(=O)N2CCC[C@@H]2CN2CCCC2)c1 [#18, 2-[({2-oxo-2-[(2R)-2-(pyrrolidin-1-ylmethyl)pyrrolidin-1-yl]ethyl}amino)methyl]pyridine-4-carboxylic acid]
– | 100 to 1000 nM | ≥ 1000 nM | < 100 nM | CCN(CC)CCCCNCc1cc(C(=O)OCCCN(C)C)ccn1 [#54, 3-(dimethylamino)propyl 2-({[4-(diethylamino)butyl]amino}methyl)pyridine-4-carboxylate]
– | 100 to 1000 nM | < 100 nM | < 100 nM | CCN(CCN(C)C)C(=O)CNCc1cc(C(=O)Nc2nccn2C)ccn1 [#89, 2-{[({[2-(dimethylamino)ethyl](ethyl)carbamoyl}methyl)amino]methyl}-N-(1-methyl-1H-imidazol-2-yl)pyridine-4-carboxamide]
– | < 100 nM | ≥ 1000 nM | < 100 nM | O=C(O)c1ccnc(CNCCCNCCCN2CCCC2)c1 [#21, 2-{[(3-{[3-(pyrrolidin-1-yl)propyl]amino}propyl)amino]methyl}pyridine-4-carboxylic acid]
– | < 100 nM | ≥ 1000 nM | < 100 nM | O=C(CNCc1cc(C(=O)O)ccn1)NC1CCN(CCc2ccccc2)C1 (stereo not shown) [#39, 2-{[({[1-(2-phenylethyl)pyrrolidin-3-yl]carbamoyl}methyl)amino]methyl}pyridine-4-carboxylic acid]
– | 100 to 1000 nM | ≥ 1000 nM | 100 to 1000 nM | C#CCN(C)Cc1cc(C(=O)O)ccn1 [#7, 2-{[methyl(prop-2-yn-1-yl)amino]methyl}pyridine-4-carboxylic acid]
– | ≥ 1000 nM | < 100 nM | < 100 nM | CCOC(=O)N(C)c1ccc(COC(=O)c2ccnc(CNCCCCN(CC)CC)c2)cc1 [#60, {4-[(ethoxycarbonyl)(methyl)amino]phenyl}methyl 2-({[4-(diethylamino)butyl]amino}methyl)pyridine-4-carboxylate]
– | < 100 nM | ≥ 1000 nM | < 100 nM | COCCN1CCN(C(=O)CNCc2cc(C(=O)O)ccn2)CC1 [#16, 2-[({2-[4-(2-methoxyethyl)piperazin-1-yl]-2-oxoethyl}amino)methyl]pyridine-4-carboxylic acid]
– | < 100 nM | 100 to 1000 nM | < 100 nM | CN1CCN(Cc2ccc(CN(C)C(=O)CNCc3cc(C(=O)O)ccn3)cc2)CC1 [#42, 2-[({[methyl({4-[(4-methylpiperazin-1-yl)methyl]phenyl}methyl)carbamoyl]methyl}amino)methyl]pyridine-4-carboxylic acid]
– | < 100 nM | ≥ 1000 nM | < 100 nM | CCN(CC)CCCCNCc1cc(C(=O)OCCN(C)C)ccn1 [#53, 2-(dimethylamino)ethyl 2-({[4-(diethylamino)butyl]amino}methyl)pyridine-4-carboxylate]
– | < 100 nM | ≥ 1000 nM | < 100 nM | CN(CCCc1nccn1C)C(=O)CNCc1cc(C(=O)O)ccn1 [#25, 2-{[({methyl[3-(1-methyl-1H-imidazol-2-yl)propyl]carbamoyl}methyl)amino]methyl}pyridine-4-carboxylic acid]
– | < 100 nM | ≥ 1000 nM | 100 to 1000 nM | CCN(CCN(C)C)C(=O)CNCc1cc(C(=O)OC(C)CCN(C)C(=O)C(F)(F)F)ccn1 (stereo not shown) [#64, 4-(2,2,2-trifluoro-N-methylacetamido)butan-2-yl 2-{[({[2-(dimethylamino)ethyl](ethyl)carbamoyl}methyl)amino]methyl}pyridine-4-carboxylate]
– | 100 to 1000 nM | ≥ 1000 nM | < 100 nM | CCOC(=O)c1ccccc1OC(=O)c1ccnc(CNCCCCN(CC)CC)c1 [#52, 2-(ethoxycarbonyl)phenyl 2-({[4-(diethylamino)butyl]amino}methyl)pyridine-4-carboxylate]
– | < 100 nM | ≥ 1000 nM | < 100 nM | O=C(O)c1ccnc(CNCCCN2CCC(Cc3ccccc3)CC2)c1 [#40, 2-({[3-(4-benzylpiperidin-1-yl)propyl]amino}methyl)pyridine-4-carboxylic acid]
– | < 100 nM | ≥ 1000 nM | < 100 nM | CSCCNCc1cc(C(=O)O)ccn1 [#12, 2-({[2-(methylsulfanyl)ethyl]amino}methyl)pyridine-4-carboxylic acid]
– | 100 to 1000 nM | < 100 nM | 100 to 1000 nM | CCOC(=O)c1ccnc(CNCC(=O)N(CC)CCN(C)C)c1 [#65, ethyl 2-{[({[2-(dimethylamino)ethyl](ethyl)carbamoyl}methyl)amino]methyl}pyridine-4-carboxylate]
– | 100 to 1000 nM | ≥ 1000 nM | < 100 nM | O=C(O)c1ccnc(CNCC2CC2)c1 [#4, 2-{[(cyclopropylmethyl)amino]methyl}pyridine-4-carboxylic acid]
– | 100 to 1000 nM | ≥ 1000 nM | < 100 nM | CCN(CC)CCCCNCc1cc(C(=O)Oc2c(OC)cccc2OC)ccn1 [#56, 2,6-dimethoxyphenyl 2-({[4-(diethylamino)butyl]amino}methyl)pyridine-4-carboxylate]
– | < 100 nM | ≥ 1000 nM | < 100 nM | CN(CCC(N)=O)C(=O)CNCc1cc(C(=O)O)ccn1 [#23, 2-[({[(2-carbamoylethyl)(methyl)carbamoyl]methyl}amino)methyl]pyridine-4-carboxylic acid]

Compound | EC50 (MCF7 cells) | IC50 (GASC1 (KDM4C, JMJD2C)) | IC50 (UTX (KDM6A)) | IC50 (PLU1 (KDM5B))
O=C(O)c1ccnc(CNCCF)c1 [#8, 2-{[(2-fluoroethyl)amino]methyl}pyridine-4-carboxylic acid] | – | 100 to 1000 nM | ≥ 1000 nM | 100 to 1000 nM
4-methoxyphenyl 2-({[4-(diethylamino)butyl]amino}methyl)pyridine-4-carboxylate [#51] | – | 100 to 1000 nM | ≥ 1000 nM | < 100 nM
